Experimental data published in paper PMC7606262 (Molecular genetics and metabolism, 2020).
Changes are numbered by the printed parent chain.

Columns and labels:
[1] = molecular target: T1, LCAD (long-chain acyl-CoA dehydrogenase) (Homo sapiens, UniProt P28330); experiment: acyl-CoA oxidase assay; type: biochemical; details: oxygen as electron acceptor; 50 mM phosphate pH 7.0, 30 °C
T1 sequence (P28330 31-430): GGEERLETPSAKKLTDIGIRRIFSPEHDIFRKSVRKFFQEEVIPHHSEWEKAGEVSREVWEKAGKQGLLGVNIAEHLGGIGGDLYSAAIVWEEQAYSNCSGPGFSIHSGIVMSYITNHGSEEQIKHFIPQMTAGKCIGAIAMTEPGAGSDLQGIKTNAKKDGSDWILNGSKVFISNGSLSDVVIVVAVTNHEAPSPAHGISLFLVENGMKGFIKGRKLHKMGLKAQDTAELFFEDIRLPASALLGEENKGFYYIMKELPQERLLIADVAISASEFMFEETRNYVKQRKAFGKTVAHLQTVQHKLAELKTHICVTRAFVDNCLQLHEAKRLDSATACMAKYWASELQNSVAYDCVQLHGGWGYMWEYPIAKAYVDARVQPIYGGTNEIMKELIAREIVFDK

[2] = molecular target: T2, LCAD (long-chain acyl-CoA dehydrogenase) (Homo sapiens, UniProt P28330, K333Q); experiment: acyl-CoA oxidase assay; type: biochemical; details: oxygen as electron acceptor; 50 mM phosphate pH 7.0, 30 °C
T2 sequence (P28330 31-430 K333Q): T1 sequence (P28330 31-430) with K303Q

[3] = molecular target: T1, LCAD (long-chain acyl-CoA dehydrogenase); experiment: absorbance scan, A443/A280 FAD content; type: binding; details: 100 uM free FAD, 37 °C, 20 min, then dialysis; non-covalent FAD

Row | SMILES | acyl-CoA oxidase assay (HRP / Amplex UltraRed fluorescence, H2O2) [1] | acyl-CoA oxidase assay (HRP / Amplex UltraRed fluorescence, H2O2) [2] | A443/A280 [3]
1 | CCCCCCCCCCCCCCCCCC(=O)SCCNC(=O)CCNC(=O)[C@H](O)C(C)(C)COP(=O)(O)OP(=O)(O)OC[C@H]1O[C@@H](n2cnc3c(N)ncnc32)[C@H](O)[C@@H]1OP(=O)(O)O [C18-CoA, stearoyl-CoA] | C18-CoA was used as substrate as this chain length produces the highest H2O2 production | the presence of the K333Q substitution significantly reduced oxidase activity | 
2 | Cc1cc2nc3c(=O)[nH]c(=O)nc-3n(C[C@H](O)[C@H](O)[C@H](O)COP(=O)(O)OP(=O)(O)OC[C@H]3O[C@@H](n4cnc5c(N)ncnc54)[C@H](O)[C@@H]3O)c2cc1C [FAD] |  |  | After incubation of wild-type LCAD with FAD, the A443/A280 ratio, an indicator of enzyme-bound FAD
